From patent US12491180B2, “Application of compound in treating pneumonia” (SHENZHEN OPTIMUM BIOLOGICAL TECHNOLOGY CO., LTD., priority 2019, dated 2025)
Converted amounts (≈) assume the structure as drawn.

Tests used:
Test in all cases: MIC, solid dilution method
[1] = test system: Enterobacter aerogenes 8193; assay type: cell-based; conditions: Klebsiella aerogenes; E. ae 8193, CRE clinical isolate; MHA agar, 37° C., 16-20 hours; read-out: MIC
Method: CRE Enterobacter aerogenes 8193, a total of 1 strain;
(§1) The above-mentioned glycerol-preserved strains were taken out from the −80° C. refrigerator, streaked and inoculated on MHA plates, labeled, and cultured overnight in a 37° C. incubator.
(§2) The inoculum was prepared directly from bacterial suspension, and several recovered colonies were picked and directly prepared into a bacterial suspension with a turbidity of No. 0.5 McFarland units in normal saline, and a 10-fold dilution was made during inoculation.
(§3) 6 bottles of MHA culture medium 500 mL/bottle were prepared, and the pH was adjusted to 7.2-7.4, sterilized at 121° C. for 15 min, and the medium was placed in a 55° C. water bath to keep warm.
(§4) Sterile blank petri dishes were taken, and marked with each FL drug/concentration according to 2-fold dilution, and 10 concentrations of each drug starting from 8 μg/mL were tested.
(§5) […]; 20 mL was aspirated and added to a petri dish consistent with the mark, and then 20 mL of MHA culture medium was added to the rest of the drug-containing culture medium, mixed evenly, that is, the 2-fold diluted drug-containing culture medium; 20 mL was aspirated and added to the petri dish consistent with the mark, and then diluted to the 10th concentration and the […] respectively by repeating the above-mentioned steps, and then poured into the petri dish.
(§6) 4 bacterial control petri dishes without drug were prepared at the same time as a control.
(§7) The positioning needle and the inoculation needle were installed according to the order of placement of the colony on the inoculation plate. After inoculation, a bacterial solution circle was formed on the petri dish. After the bacterial solution was absorbed by the agar, the petri dish was placed in an incubator at 37° C. for overnight incubation (16-20 hours), and then taken out.
(§8) The minimum inhibitory concentrations of the compounds against the CRE and CSE strains were determined by the solid dilution method, and the results are shown in Tables 3 and 4.

E. ae 14186 = assay type: cell-based, Enterobacter aerogenes; conditions: Klebsiella aerogenes, 14186
Method: as §1, §2, §3, §4, §5, §6, §7, §8

E. coli 11256 = assay type: cell-based; conditions: Escherichia coli; E. coli 11256; MHA agar, 37° C., 16-20 hours; read-out: MIC
Method: as §1, §2, §3, §4, §5, §6, §7, §8

Escherichia coli 11119 = assay type: cell-based; conditions: 11119
Method: as §1, §2, §3, §4, §5, §6, §7, §8

Escherichia coli 13897 = assay type: cell-based; conditions: E. coli 13897, CRE clinical isolate, MHA agar, 37° C., 16-20 hours, read-out: MIC
Method: as §1, §2, §3, §4, §5, §6, §7, §8

Escherichia coli 14828 = assay type: cell-based; conditions: 14828
Method: as §1, §2, §3, §4, §5, §6, §7, §8

Klebsiella oxytoca 12391 = assay type: cell-based; conditions: K. ox 12391, CRE clinical isolate, MHA agar, 37° C., 16-20 hours, read-out: MIC
Method: as §1, §2, §3, §4, §5, §6, §7, §8

Klebsiella oxytoca 14151 = assay type: cell-based; conditions: 14151
Method: as §1, §2, §3, §4, §5, §6, §7, §8

Klebsiella oxytoca 14153 = assay type: cell-based; conditions: 14153
Method: as §1, §2, §3, §4, §5, §6, §7, §8

Klebsiella oxytoca 6777 = assay type: cell-based; conditions: 6777
Method: as §1, §2, §3, §4, §5, §6, §7, §8

[2] = test system: Escherichia coli ATCC25922; assay type: cell-based; conditions: E. coli ATCC25922, standard strain, MHA agar, 37° C., 16-20 hours, read-out: MIC
Method: (§9) (1) Standard strains: Escherichia coli BAA-2452, Escherichia coli ATCC25922, Klebsiella pneumoniae BAA-1705; all purchased from ATCC.
as §1, §2, §3, §4, §5, §6, §7, §8

[3] = test system: Escherichia coli BAA-2452; assay type: cell-based; conditions: BAA2452, E. coli BAA-2452, standard strain, MHA agar, 37° C., 16-20 hours, read-out: MIC
Method: as §9, §1, §2, §3, §4, §5, §6, §7, §8

[4] = test system: Klebsiella pneumoniae BAA-1705; assay type: cell-based; conditions: BAA1705
Method: as §9, §1, §2, §3, §4, §5, §6, §7, §8

[5] = test system: Klebsiella pneumoniae 11544; assay type: cell-based; conditions: 11544
Method: (§10) (2) Clinical isolated strains: CRE Klebsiella pneumoniae 5846, 11544, 12559, 13249 and CSE Klebsiella pneumoniae 8733, a total of 5 strains;
as §1, §2, §3, §4, §5, §6, §7, §8

[6] = test system: Klebsiella pneumoniae 12559; assay type: cell-based; conditions: K.p 12559, CRE clinical isolate, MHA agar, 37° C., 16-20 hours, read-out: MIC
Method: as §10, §1, §2, §3, §4, §5, §6, §7, §8

[7] = test system: Klebsiella pneumoniae 13249; assay type: cell-based; conditions: 13249
Method: as §10, §1, §2, §3, §4, §5, §6, §7, §8

[8] = test system: Klebsiella pneumoniae 5846; assay type: cell-based; conditions: 5846
Method: as §10, §1, §2, §3, §4, §5, §6, §7, §8

[9] = test system: Klebsiella pneumoniae 8733; assay type: cell-based; conditions: K.p 8733, CSE clinical isolate, MHA agar, 37° C., 16-20 hours, read-out: MIC
Method: as §10, §1, §2, §3, §4, §5, §6, §7, §8

[10] = test system: Citrobacter freundii 7646; assay type: cell-based; conditions: C.f 7646, CSE clinical isolate, MHA agar, 37° C., 16-20 hours, read-out: MIC
Method: (§11) CRE Citrobacter freundii 9434, 9484 and CSE Citrobacter freundii 7646, a total of 3 strains;
as §1, §2, §3, §4, §5, §6, §7, §8

[11] = test system: Citrobacter freundii 9434; assay type: cell-based; conditions: 9434
Method: as §11, §1, §2, §3, §4, §5, §6, §7, §8

[12] = test system: Citrobacter freundii 9484; assay type: cell-based; conditions: C.f 9484, CRE clinical isolate, MHA agar, 37° C., 16-20 hours, read-out: MIC
Method: as §11, §1, §2, §3, §4, §5, §6, §7, §8

[13] = test system: Acinetobacter baumannii 6383; assay type: cell-based; conditions: 6383
Method: (§12) CRE Acinetobacter baumannii 8476, 6383, a total of 2 strains; CRE Serratia marcescens 14541, a total of 1 strain; all collected in the Department of Infectious Diseases, West China Hospital, Chengdu, Sichuan Province, and kept in our laboratory.
as §1, §2, §3, §4, §5, §6, §7, §8

[14] = test system: Acinetobacter baumannii 8476; assay type: cell-based; conditions: A.B 8476, CRE clinical isolate, MHA agar, 37° C., 16-20 hours, read-out: MIC
Method: as §12, §1, §2, §3, §4, §5, §6, §7, §8

[15] = test system: Serratia marcescens 14541; assay type: cell-based; conditions: 14541
Method: as §12, §1, §2, §3, §4, §5, §6, §7, §8

Work on `C[C@H]1[C@H](NC(=O)/C(=N\OC(C)(C)C(=O)O)c2csc(N)n2)C(=O)N1S(=O)(=O)O` [Aztreonam, aztreonam, reference compound] yielded an MIC [1] of 32 µg/mL (≈ 73.5 µM), an MIC (E. ae 14186) greater than 128 µg/mL and an MIC (E. coli 11256) of less than 0.25 µg/mL. For the same compound, the MIC (Escherichia coli 11119) was greater than 128 µg/mL, the MIC (Escherichia coli 13897) was 64 µg/mL (≈ 147 µM) and the MIC (Escherichia coli 14828) was greater than 128 µg/mL. It also gave an MIC (Klebsiella oxytoca 12391) of 32 µg/mL (≈ 73.5 µM), an MIC (Klebsiella oxytoca 14151) greater than 128 µg/mL and an MIC (Klebsiella oxytoca 14153) greater than 128 µg/mL. The MIC (Klebsiella oxytoca 6777) was 128 µg/mL (≈ 294 µM), the MIC [2] was less than 0.25 µg/mL and the MIC [3] was 8 µg/mL (≈ 18.4 µM). For the same compound, the MIC [4] was greater than 128 µg/mL, the MIC [5] was greater than 128 µg/mL and the MIC [6] was 4 µg/mL (≈ 9.19 µM). The MIC [7] was greater than 128 µg/mL, the MIC [8] was 128 µg/mL (≈ 294 µM) and the MIC [9] was 8 µg/mL (≈ 18.4 µM). For the same compound, the MIC [10] was 16 µg/mL (≈ 36.7 µM), the MIC [11] was greater than 128 µg/mL and the MIC [12] was 1 µg/mL (≈ 2.3 µM). For the same compound, the MIC [13] was 128 µg/mL (≈ 294 µM), the MIC [14] was 64 µg/mL (≈ 147 µM) and the MIC [15] was greater than 128 µg/mL.
